pIC50: −log10 of the molar value. Entries after “also recorded” stand apart in the source; their conditions may differ.

This is an account of results in PMC7667029, “A Targeted Computational Screen of the SWEETLEAD Database Reveals FDA-Approved Compounds with Anti-Dengue Viral Activity” (mBio, 2020).

The test system of series [1] is dengue virus. Description: Initial screening of hit compounds for anti-dengue activity in tissue culture cells (Table S1). The series is classed as cell-based. As to conditions: viral titer relative to vehicle, tissue culture cell lines (BHK-21 48 hpi, Fig. S1; Huh7, Fig. 2C, 3C, 4C). On the procedure:
For each query molecule, the top 500 compound hits obtained from the ROCS algorithm, as ranked by the Tanimoto combo score (see Data Set S1 in the supplemental material), were manually inspected for similar chemical and structural features. They were further prioritized by factors such as a lack of known side effects, commercial availability, and the intellectual property considerations that would be needed for worldwide, inexpensive use. Fourteen candidates were tested for their effects on dengue virus growth and toxicity in BHK-21 and Huh7 cells (see Table S1 and Fig. S1 in the supplemental material).
(§1) Supplementary file : TABLE S1 Summary of hits for lead compounds ARDP0006 and ST-148 screened for anti-dengue activity in tissue culture cells. Hit compounds were tested for anti-dengue activity and cell toxicity in tissue culture cell lines. Antiviral activity is summarized as follows: −, not antiviral, with titer greater than 50% of vehicle; +, weakly antiviral, with titer between 20 and 50% of vehicle; ++, moderately antiviral, with titer between 5 and 20% of vehicle; +++, highly antiviral, with titer less than 5% of vehicle. Toxicity at these doses is represented as follows: −, nontoxic, with cell viability greater than 80% of vehicle; +, mild toxicity, with cell viability between 60 and 80% of vehicle; +++, high toxicity, with cell viability less than 60% of vehicle. Data summarized here are depicted graphically in Fig. S1 and Fig. 2C, 3C, and [4]C. The Tanimoto combo score of each hit during initial ROCS screening is indicated; higher Tanimoto combo scores are indicative of increased chemical similarity. Download Table S1, PDF file, 0.04 MB.
Supplementary file : FIG S1 Initial screening of eliminated hit compounds for anti-dengue activity in tissue culture cells. BHK-21 cells were pretreated with the compounds at the indicated concentrations for 30 min, infected with dengue virus at an MOI of 0.1 PFU/cell for 1 h, and then posttreated with compound. At 48 hpi, cellular supernatant was collected and titered by plaque assay (purple). Cell viability in uninfected cells in the presence of compounds for 48 h was measured by WST assay (gray). Both viral titer and cell viability are normalized to their relative DMSO vehicle control, N = 2. Download FIG S1, PDF file, 0.06 MB.

The subject of another series is dengue viral RNA. Nature of the series: Intracellular viral RNA quantification by qRT-PCR in infected Huh7 cells. It counts as cell-based, dengue virus. The protocol:
(§2) (A) Chemical structures and (B) ROCS overlay of ST-148 and niclosamide. […] Compound addition, viral growth, and cytotoxicity assays were performed as described in the legend to Fig. 2C. (D) Virucidal activity of compounds at the concentrations indicated was measured after 60-min incubation of drugs with virus-containing solutions at 37°C. Viral titer was quantified by plaque assay on BHK-21 cells. n = 3. Statistical significance was evaluated by one-way ANOVA with Sidak’s multiple-comparison test and indicated as follows: *, P < 0.05; **, P < 0.01; ****, P < 0.0001; ns, not significant. […] On the left, cells were pretreated for 2 h prior to infection, compounds were removed during a 1-h infection at an MOI of 0.5 PFU/cell and then readministered after removal of viral inoculum. On the right, cells were similarly infected and compounds were first introduced 4 h after starting the infection. […] (F) To test the effect of ST-148 and niclosamide on viral RNA replication, Huh7 cells were infected for 1 h at an MOI of 0.5 PFU/cell. […] Intracellular RNA was collected at the time points indicated and quantified by qRT-PCR. […] N = 4, two-way ANOVA with Dunnett’s multiple-comparison test. […] After 4 h of infection, 10 μM ST-148 or 1 μM niclosamide was added; extracellular virus was collected at 24 hpi and quantified by plaque assay.
Background: In qPCR the cycle at which signal appears reflects the starting amount.

For series [2], the system named is dengue virus. Description: Virucidal activity assay, 60-min incubation of drug with virus, plaque assay on BHK-21 cells. As to conditions: 0.1 μM ST-148, 1 h at 37°C. It counts as cell-based. The protocol:
as §2
Compounds were diluted to 100× in DMSO, then further diluted 1:100 into phosphate-buffered saline (PBS) containing dengue virus to a final volume of 200 μl and mixed. Aliquots were taken for plaque assays immediately after addition of compounds (time [T] = 0 min) or after incubation at 37°C for 60 min (T = 60 min).

Another series relates to DENV2. Nature of the series: Antiviral activity in DENV2-infected Huh7 cells, infectious virus in supernatant by plaque assay. It counts as cell-based, dengue virus. On the procedure:
FIG 2 Pyrimethamine inhibits dengue virus and NS2B/3 proteinase cleavage like ARDP0006. (A) Chemical structures and (B) ROCS overlay of ARDP0006 and pyrimethamine. […] Infectious virus in cell supernatant was quantified by plaque assay at 24 hpi (left y axis, black or red). Cell viability was measured at the same pyrimethamine doses 24 h posttreatment by WST-1 assay (right y axis, gray). Viral titer and cell viability were normalized to DMSO-treated samples. (D) Splenic titers of DENV2-infected AGB6 mice at 4 days postinfection. Mice were infected with 1 × 10^6 PFU DENV2 and treated twice daily with 20 mg/kg pyrimethamine (n = 9) or a vehicle control (n = 10). Data were analyzed by two-tailed unpaired t test. (E) Cleavage kinetics of NS2B/3/4A in the presence of 100 μM pyrimethamine. NS2B/3/4A protein was expressed in vitro and radiolabeled with [^35S]methionine, followed by treatment with 100 μM pyrimethamine or DMSO. Reaction samples were obtained over a 45-min time course, separated by SDS-PAGE, and the fraction of uncleaved proteinase precursor remaining was determined as described previously ([23]). Data from three replicates were fit using single-phase exponential decay functions, and P value was determined by comparing the rate constant, K, of the models using the extra sum-of-squares F test.
Dengue plaque assays were carried out on BHK-21 cells in 24-well plates. Cells were infected with 10-fold serial dilutions of virus, which were allowed to adsorb for at least 1 h at 37°C, and overlaid with standard cell culture medium plus 0.37% (w/vol) sodium bicarbonate and 0.8% (w/vol) Aquacide II (Millipore Calbiochem). After 7 days of incubation at 37°C, 5% CO2, cells were fixed with 5% (final) formaldehyde and stained with crystal violet for plaque enumeration.
Between 4 × 10^4 and 1 × 10^5 Huh7 cells per well were seeded into 24-well plates 1 day prior to infection. Compounds were diluted to 100× final concentration in DMSO and then further diluted 1:100 into appropriate cell culture. Unless otherwise indicated, tested compounds were present for 1 h pretreatment and readministered for posttreatment following infection. […] Media and drugs were removed from cells for infection at a multiplicity of infection (MOI) of 0.1 or 0.5 in 200 μl cold medium per well. After 1 h at 37°C, virus inoculum was removed by aspiration and replaced with medium plus compound or control. After 24-h total infection, infectious virus was quantified by plaque assay. Antiviral IC50 dose-response curves were fitted in GraphPad Prism 8 using the “[inhibitor] versus response, variable slope” function with a constraint “bottom > 0.” IC90 values are defined as the dose at which “y = (span × 0.1) + bottom.”

In the next series the test system is BHK-21 and Huh7 cells. Nature of the series: Cell viability by WST assay in uninfected cells (Table S1). The series is classed as cell-based. As to conditions: cell viability relative to vehicle at these doses. On the procedure:
as §1, with “The Tanimoto combo score of each hit during initial ROCS screening is indicated; higher Tanimoto combo scores are indicative of increased chemical similarity. Download Table S1, PDF file, 0.04 MB.” left out
Supplementary file : FIG S1 Initial screening of eliminated hit compounds for anti-dengue activity in tissue culture cells. […] Cell viability in uninfected cells in the presence of compounds for 48 h was measured by WST assay (gray). […]
Mock-infected wells were used to determine cell viability in the presence of chemical compounds compared to 1% DMSO vehicle control. Cell viability was determined using the WST-1 kit (Abcam) per the manufacturer’s instructions. […]

For `COc1cc2nc(N3CCN(C(=O)C4COc5ccccc5O4)CC3)nc(N)c2cc1OC` (stereo not shown) [Doxazosin], in the series with dengue virus [1], the Antiviral entry is “+ (weakly antiviral, with titer between 20 and 50% of vehicle)”.
Regarding `CC1=NN(c2ccc(C)c(C)c2)C(=O)/C1=N\Nc1cccc(-c2cccc(C(=O)O)c2)c1O` [Eltrombopag], the Antiviral result in the series on dengue virus [1] was “− (not antiviral, with titer greater than 50% of vehicle)”.
For `Nc1c2c(nc3ccccc13)CCCC2O` (stereo not shown) [Hydroxy tacrine], the Antiviral entry in the series with dengue virus [1] is listed as “− (not antiviral, with titer greater than 50% of vehicle)”.
On to `C[C@@]1(O)[C@H](O)[C@@H](CO)O[C@H]1n1ccc2c(N)ncnc21` [MK0608], for which the “Viral RNA abundance” value in the series with dengue viral RNA (50 μM MK0608, control for inhibited vRNA replication) was “significantly reduced vRNA load; also recorded: strongly reduced viral RNA abundance”.
Regarding `Cc1cnc(NC(=O)C2=C(O)c3ccccc3S(=O)(=O)N2C)s1` [Meloxicam], the Antiviral entry in the series on dengue virus [1] is “− (not antiviral, with titer greater than 50% of vehicle)”.
Still for that read-out and setting: the value for `COc1c2occc2cc2ccc(=O)oc12` [Methoxsalen] was “− (not antiviral, with titer greater than 50% of vehicle)”.
Take `Cc1c(NC(=O)c2cccnc2)c(=O)n(-c2ccccc2)n1C` [Nifenazone]: the Antiviral entry in the series with dengue virus [1] was “+ (weakly antiviral, with titer between 20 and 50% of vehicle)”.
The same measure, in the same setting: in the case of `COc1ccc2[nH]c([S+]([O-])Cc3ncc(C)c(OC)c3C)nc2c1` (stereo not shown) [Omeprazole] it was “− (not antiviral, with titer greater than 50% of vehicle)”.
On to `Cc1nccn1CC1CCc2c(c3ccccc3n2C)C1=O` (stereo not shown) [Ondansetron], for which the Antiviral result with dengue virus [1] was “++ (moderately antiviral, with titer between 5 and 20% of vehicle)”.
For the compound `Cc1cccn2c(=O)c(-c3nnn[nH]3)cnc12` [Pemirolast], the Antiviral result in the series on dengue virus [1] is reported as “− (not antiviral, with titer greater than 50% of vehicle)”.
For the compound `Nc1c(C(=O)Nc2nnc(-c3ccccc3)s2)sc2nc3c(cc12)CCCCC3` [ST-148], the “Virucidal activity (viral infectivity after coincubation)” value with dengue virus [2] is listed as “significantly reduced viral infectivity”. Besides, the “Virion production at increased dose after entry” value in the series with DENV2 (10 μM ST-148 or 1 μM niclosamide added after 4 h of infection, extracellular virus at 24 hpi) is on record as “effective during later, postentry stages; also recorded: inhibited virion production”. Moreover, the IC90 (in general, the concentration needed for an effect of 90%) with DENV2 (Dengue virus, Huh-7, DENV2-infected Huh7 cells, from dose-response curve fit, 24 hpi) came out at 5.6 µM. In addition, in the series with DENV2 (Dengue virus, Huh-7, DENV2-infected Huh7 cells, single infectious cycle, plaque assay at 24 hpi, read-out: IC50 of viral inhibition (infectious extracellular virus)), the pIC50 (commonly −log10 of the IC50, conventionally taken in molar units) was 6.42. Also, the “Viral titer on delayed addition of compound” value with DENV2 (IC90 dose first added 4 h after infection, Huh7, 24 hpi) was “eliminated the observed reduction of viral titer”. Besides, the “Viral RNA abundance” value in the series with dengue viral RNA (added 4 h postinfection at IC90 dose (5.6 μM ST-148, 0.66 μM niclosamide)) was “no difference in viral RNA abundance”.
`Cc1noc(NS(=O)(=O)c2ccc(N)cc2)c1C` [Sulfisoxazole]: the Antiviral result in the series on dengue virus [1] is “+ (weakly antiviral, with titer between 20 and 50% of vehicle)”.
With `Nc1nc(N)c2nc(-c3ccccc3)c(N)nc2n1` [Triamterine], in the series with BHK-21 and Huh7 cells, the Toxicity entry is listed as “+++ (high toxicity, with cell viability less than 60% of vehicle)”. Also, the Antiviral entry in the series on dengue virus [1] is on record as “+++ (highly antiviral, with titer less than 5% of vehicle)”.
